Patent publication US20220364056A1, “SHORT-CHAIN FATTY ACID PENTANOATE AS ENHANCER FOR CELLULAR THERAPY AND ANTI-TUMOR THERAPY” (PHILIPPS-UNIVERSITÄT MARBURG, priority 2019, published 2022)

Legend:
[1] = tested on: CD8+ cytotoxic T lymphocytes (CTLs); assay: murine CTLs cultivated under suboptimal conditions with SCFAs; cytokines and effector molecules by flow cytometry and ELISA; format: cell-based
Text: It is known that the glycolytic metabolic pathway promotes IFN-γ expression and T cell effector function. […] We next investigated if acetylation of H4 was increased at CTL-characteristic loci (Ifnγ, Tbx21 and Eomes) after treatment of CTLs with pentanoate. […] Due to the high level of heterogeneity and plasticity within T lymphocytes, we next investigated possible effects of pentanoate on other CD8^+ T cell subtypes. […] To gain further insight into possible therapeutic strategies, we next investigated the impact of pentanoate on human CD8^+ T lymphocytes.
(A) Experimental design for the treatment of CTLs with the water-soluble fraction of intestinal content derived from SPF or GF mice. (B and C) Frequencies of IFN-γ- and TNF-α-producing CTLs treated with the extract from luminal content derived from indicated organs. Representative results of two experiments are shown (n=3). (D) ELISA was performed to measure the secretion of TNF-α by CLTs treated as shown in (A). (E) Quantitative measurement of total SCFA amounts in fecal samples of SPF and GF mice (n=5). (F and G) The percentage of IFN-γ^+ TNF-α^+ CTLs treated with the indicated SCFAs for three days (n=3, one of three independent experiments is shown). (H) The secretion of TNF-α from CTLs treated with SCFAs was determined by ELISA (n=3, one of two independent experiments is shown). (I) The fluorogenic HDAC assay was applied to measure the HDAC inhibitory activity of SCFAs on CTLs. The value for unstimulated CTLs was arbitrarily set to 1.0. Four independent experiments were performed. (J and K) Representative contour plots (J) and bar graphs (K) showing the frequency of IFN-γ+ and TNF-α+ cells after pentanoate (2 mM) or VPA (0.5 mM) administration. Three similar experiments were performed. (L and M) The frequency of Eomes- and T-bet-expressing CTLs treated with pentanoate (2 mM) or VPA (0.5 mM) for three days was analyzed by flow cytometry (n=4). (N) ChIP assay showing the acetylation of histone H4 at the promoter regions of Ifnγ and Eomes genes after 24 hours of treatment of CTLs with pentanoate. Data are from pooled chromatin of three mice.
Representative histogram plots (A) and bar graphs (B) are showing the frequency of Annexin V^+ cells. Three similar experiments were performed. (C) Representative effector molecule staining of CD8^+ T cells polarized under suboptimal CTL-inducing conditions, treated with pentanoate or TSA (10 nM Sigma-Aldrich) in presence of 2-DG (1 mM, Sigma-Aldrich) or rapamycin (100 nM, Sigma-Aldrich) for 3 days. Three independent experiments were performed. (D) Western blot analysis of H3Ac and H4Ac in CD8^+ T cells treated with SCFAs for 3 days. (E) Pan-H4Ac ChIP qPCR analysis for Tbx21 promoter accessibility in pentanoate-treated CTLs. Data are from pooled chromatin of three mice. (F and G) CD8^+ T cells isolated from WT and Tbx21^−/− mice were polarized under suboptimal CTL-inducing conditions in presence of increasing pentanoate concentrations. Representative contour plots (F) and bar graphs (G) show the frequency of IFN-γ+ and IL-17A^+ cells. Two similar experiments were performed. […]

PancOVA cells = assay: adoptive transfer of pretreated OT-I CTLs into mice bearing s.c. PancOVA tumors; format: in vivo
Text: We tested this hypothesis in two different subcutaneous (s.c.) tumor models. We injected s.c. B16OVA melanoma cells into CD45.2^+ mice and transferred either control or pentanoate-treated CD45.1^+ OT-I CTLs into recipient animals on day 5 after tumor injection. […] On day 10 after adoptive transfer of CTLs, we detected a higher number of pentanoate-treated cells expressing more effector cytokines TNF-α and IFN-γ in comparison to control OT-I CTLs in tumors, draining LNs and spleen (FIG. 2, E-G). Furthermore, the anti-tumor effects mediated by treatment of CTLs with pentanoate were tested in aggressive pancreatic tumors expressing OVA protein (OVA-expressing Panc02 cells, PancOVA). To this end, 1.5×10^6 PancOVA cells were injected s.c. into CD45.2^+ mice. […] One area of application is CAR therapy.
(A) Experimental design for the role of SCFAs in promoting anti-tumor immunity. (B-D) After three days of pre-treatment with pentanoate, CD45.1^+ OVA-specific CTLs were transferred intraperitoneally (i.p.) into CD45.2^+ mice bearing 5-days old B16OVA tumors. Tumor volume and tumor mass were analyzed (n=3 mice per group, one of three independent experiments is shown). […]
Tumor weight was determined on day 23 post tumor inoculation. […]

mTOR = assay: phosphorylation of mTOR and S6 in murine CTLs; format: cell-based; details: pentanoate 2.5 mM, three days
Procedure: (A and B) CTLs were cultured in medium containing 1.0% FCS and treated with pentanoate (2.5 mM) for three days. Representative histogram plots and bar graphs indicate the phoshorylated levels of mTOR (A) and S6 ribosomal protein (B), respectively (n=3 pooled from three independent experiments). (C and D) Human CTLs were cultured in medium containing 1.0% serum and treated with indicated HDACi for three days. Representative histogram plots and bar graphs indicate the phoshorylated levels of mTOR (C) and S6 ribosomal protein (D), respectively (data points represent four individual healthy donors) (E) Measurement of extracellular acidification rate (ECAR) for in vitro generated murine CTLs cultured with or without 2.5 mM pentanoate for three days. ECAR was measured under basal conditions and in response to glucose (10 mM), oligomycin (2 μM), and 2-deoxy-glucose (2-DG, 100 mM). One of three independent experiments is shown.

In the case of CCCCC(=O)O [pentanoate], the “frequencies of TNF-α+ IFN-γ+ cells” value ([1]; CTLs, suboptimal conditions, SCFAs for three days) is reported as “substantial increase”, the “secretion of TNF-α by CTLs” value ([1]; ELISA, CTLs treated with SCFAs) is reported as “substantial increase” and the “secretion of IL-2 by CTLs” value ([1]; ELISA, indicated time points) is reported as “robustly produced IL-2 in a prolonged manner”. For the same compound, the “production of IFN-γ by T-bet-deficient CTLs” value ([1]; Tbx21-/- vs WT, increasing pentanoate concentrations) was “partially defective production”, the “expression of TNF-α and IFN-γ in CTLs” value ([1]; pentanoate 2 mM or VPA 0.5 mM) was “potently enhanced” and the “CTL-related transcription factors T-bet and Eomes in CD8+ T cells” value ([1]; pentanoate 2 mM or VPA 0.5 mM, three days) was “strongly induced”. For the same compound, the “reversal of the effect on granzyme B+IFN-γ+ cells by rapamycin” value ([1]; rapamycin 100 nM co-treatment) was “could not be reversed”, the “percentage of CD25+IFN-γ+ cells in in vitro generated CTLs” value ([1]; three days) was “strongly enhanced” and the “percentages of granzyme B+IFN-γ+ CD8+ T cells” value ([1]; vs control CTLs, TSA 10 nM, 3 days) was “substantially enhanced”. For the same compound, the “growth of PancOVA cells in recipient animals” value (PancOVA cells; 7.5×10^5 pentanoate-treated OT-I CD8+ T lymphocytes) was “completely eliminate the growth”, the “persistence of transferred CTLs within draining LNs and spleen” value (PancOVA cells; day 23 after tumor inoculation) was “persistence of pentanoate-treated CTLs with high IFN-γ production” and the “phosphorylation level of S6 ribosomal protein” value (mTOR) was “elevated the phosphorylation levels”. The “phosphorylation level of mTOR” value (mTOR) was “elevated the phosphorylation levels”.
